From patent US11918568B2, “Fused ring compound having urea structure” (DAIICHI SANKYO COMPANY, LIMITED, priority 2018, dated 2024)

target: human NAMPT enzyme (Homo sapiens (Human), UniProt P43490); experiment: NAMPT enzyme activating effect (in vitro cell-free enzyme assay); assay type: biochemical; settings: 2 ng/mL human NAMPT enzyme, 1-h incubation at 25° C., fluorescence of NMN derivative
Description: The NAMPT enzyme assay was conducted in accordance with the method of Formentini et al. […] Hereinafter, the procedures will be briefly described. The NAMPT enzyme reaction was carried out using polypropylene 384 well V shaped black plate (Greiner Bio One International GmbH). […] Then, 22 μL of 88% formic acid was added and the mixture was further incubated for 30 min in the dark. The NAMPT enzyme activity was calculated as the difference between fluorescence intensity (Ex 380 nm/Em 450 nm) from the reaction of a test compound treatment group and fluorescence intensity from control reaction free from the NAMPT enzyme. [NAMPT enzyme activity]=[Fluorescence intensity of the test substance treatment group]−[Mean fluorescence intensity of the control reaction free from the NAMPT enzyme] EC50 value of each compound was calculated from the enzyme activities of the compound at various concentrations by using GraphPad Prism software (GraphPad Software) (Table 1)

Chain of human NAMPT enzyme (P43490 whole entry): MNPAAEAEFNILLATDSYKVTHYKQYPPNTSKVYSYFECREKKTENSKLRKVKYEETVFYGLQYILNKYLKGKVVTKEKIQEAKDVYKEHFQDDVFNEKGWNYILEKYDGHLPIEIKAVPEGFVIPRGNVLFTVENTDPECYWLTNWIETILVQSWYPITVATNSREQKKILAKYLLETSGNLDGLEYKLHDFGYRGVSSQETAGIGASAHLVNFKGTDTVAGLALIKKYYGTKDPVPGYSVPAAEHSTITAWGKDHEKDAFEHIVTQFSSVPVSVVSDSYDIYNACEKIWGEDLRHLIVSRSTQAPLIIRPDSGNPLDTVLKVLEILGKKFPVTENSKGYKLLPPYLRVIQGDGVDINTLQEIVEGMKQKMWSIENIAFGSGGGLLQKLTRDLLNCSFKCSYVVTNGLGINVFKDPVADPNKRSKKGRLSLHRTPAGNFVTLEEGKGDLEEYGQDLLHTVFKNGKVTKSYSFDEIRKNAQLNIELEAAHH

| EC50 [nM] | Structure (SMILES) |
| --- | --- |
| 80 | COc1cccc([C@H]2Oc3cc(NC(=O)NCc4ccncc4)ccc3[C@@H]2C)c1 (relative stereo) [Example 53, N-[(2S*,3S*)-2-(3-Methoxyphenyl)-3-methyl-2,3-dihydro-1-benzofuran-6-yl]-N′-[(pyridin-4-yl)methyl]urea] |
| 150 | CC1(c2nc3ccc(NC(=O)NCc4ccncc4)cc3o2)CC1 [Example 3, N-[2-(1-Methylcyclopropyl)-1,3-benzoxazol-6-yl]-N′-[(pyridin-4-yl)methyl]urea] |
| 980 | Cn1cc(-c2nc3ccc(NC(=O)NCc4ccncc4)cc3o2)cn1 [Example 4, N-[2-(1-Methyl-1H-pyrazol-4-yl)-1,3-benzoxazol-6-yl]-N′-[(pyridin-4-yl)methyl]urea] |
| 110 | O=C(NCc1cnco1)Nc1ccc2nc(-c3ccccc3)oc2c1 [Example 5, N-[(1,3-Oxazol-5-yl)methyl]-N′-(2-phenyl-1,3-benzoxazol-6-yl)urea] |
| 10 | O=C(NCc1ccncc1)Nc1cc2oc(-c3ccccc3)nc2cc1F [Example 6, N-(5-Fluoro-2-phenyl-1,3-benzoxazol-6-yl)-N′-[(pyridin-4-yl)methyl]urea] |
| 140 | O=C(NCc1cnco1)Nc1ccc2nc(-c3ccccc3)nn2c1 [Example 10, N-[(1,3-Oxazol-5-yl)methyl]-N′-(2-phenyl[1,2,4]triazolo[1,5-a]pyridin-6-yl) urea] |
| 20 | CCCCc1ccccc1-c1nc2ccc(NC(=O)NCc3ccncc3)cn2n1 [Example 11, N-[2-(2-Butylphenyl)[1,2,4]triazolo[1,5-a]pyridin-6-yl]-N′-[(pyridin-4-yl)methyl]urea] |
| 230 | O=C(NCc1ccncc1)Nc1ccc2nc(-c3cccn3-c3ccccc3)nn2c1 [Example 12, N-[2-(1-Phenyl-1H-pyrrol-2-yl)[1,2,4]triazolo[1,5-a]pyridin-6-yl]-N′-[(pyridin-4-yl)methyl]urea] |
| 180 | O=C(NCc1ccncc1)Nc1ccc2nc(-c3ccccc3C(F)(F)F)nn2c1 [Example 14, N-[(Pyridin-4-yl)methyl]-N′-{2-[2-(trifluoromethyl)phenyl][1,2,4]triazolo[1,5-a]pyridin-6-yl}urea] |
| 110 | O=C(NCc1ccncc1)Nc1ccc2c(C(=O)N3CCCC3)n(-c3ccccc3)nc2c1 [Example 17, N-[2-Phenyl-3-(pyrrolidine-1-carbonyl)-2H-indazol-6-yl]-N′-[(pyridin-4-yl)methyl]urea] |
| 50 | CCN(CC)C(=O)c1c2ccc(NC(=O)NCc3ccncc3)cc2nn1-c1ccccc1 [Example 18, N,N-Diethyl-2-phenyl-6-({[(pyridin-4-yl)methyl]carbamoyl}amino)-2H-indazole-3-carboxamide] |
| 380 | CCC(=O)N1CC(c2ccccc2)COc2cc(NC(=O)NCc3ccncc3)ccc21 (stereo not drawn) [Example 19, N-(3-Phenyl-5-propanoyl-2,3,4,5-tetrahydro-1,5-benzoxazepin-8-yl)-N′-[(pyridin-4-yl)methyl]urea] |
| 160 | CN(C)C(=O)c1c(-c2ccccc2)nn2cc(NC(=O)NCc3ccncc3)cc(F)c12 [Example 20, 4-Fluoro-N,N-dimethyl-2-phenyl-6-({[(pyridin-4-yl)methyl]carbamoyl}amino)pyrazolo[1,5-a]pyridine-3-carboxamide] |
| 110 | CN(C)C(=O)c1c(-c2ccccc2)nn2cc(NC(=O)NCc3ccncc3)ccc12 [Example 23, N,N-Dimethyl-2-phenyl-6-({[(pyridin-4-yl)methyl]carbamoyl}amino)pyrazolo[1,5-a]pyridine-3-carboxamide] |
| 50 | N#Cc1c(-c2ccccc2)nn2cc(NC(=O)NCc3ccncc3)ccc12 [Example 24, N-(3-Cyano-2-phenylpyrazolo[1,5-a]pyridin-6-yl)-N′-[(pyridin-4-yl)methyl]urea] |
| 70 | Cc1c(-c2ccccc2)nn2cc(NC(=O)NCc3ccncc3)ccc12 [Example 25, N-(3-Methyl-2-phenylpyrazolo[1,5-a]pyridin-6-yl)-N′-[(pyridin-4-yl)methyl]urea] |
| 40 | O=C(NCc1ccncc1)Nc1ccc2cn(-c3ccccc3)nc2c1 [Example 26, N-(2-Phenyl-2H-indazol-6-yl)-N′-[(pyridin-4-yl)methyl]urea] |
| 130 | CS(=O)(=O)c1cccc(-n2cc3ccc(NC(=O)NCc4ccncc4)cc3n2)c1 [Example 27, N-{2-[3-(Methanesulfonyl)phenyl]-2H-indazol-6-yl}-N′-[(pyridin-4-yl)methyl]urea] |
| 1000 | Cc1c2ccc(NC(=O)NCc3ccncc3)cc2nn1-c1ccccc1 [Example 28, N-(3-Methyl-2-phenyl-2H-indazol-6-yl)-N′-[(pyridin-4-yl)methyl]urea] |
| 60 | COCCOc1ccccc1-n1cc2ccc(NC(=O)NCc3ccncc3)cc2n1 [Example 29, N-{2-[2-(2-Methoxyethoxy)phenyl]-2H-indazol-6-yl}-N′-[(pyridin-4-yl)methyl]urea] |
| 10 | COc1cccc(-n2cc3ccc(NC(=O)NCc4ccncc4)cc3n2)c1 [Example 30, N-[2-(3-Methoxyphenyl)-2H-indazol-6-yl]-N′-[(pyridin-4-yl)methyl]urea] |
| 430 | O=C(NCc1ccncc1)Nc1cnc2cc(-c3ccccc3)nn2c1 [Example 31, N-(2-Phenylpyrazolo[1,5-a]pyrimidin-6-yl)-N′-[(pyridin-4-yl)methyl]urea] |
| 130 | COc1cc(-n2nc3cc(NC(=O)NCc4ccncc4)ccc3c2C#N)ccn1 [Example 33, N-[3-Cyano-2-(2-methoxypyridin-4-yl)-2H-indazol-6-yl]-N′-[(pyridin-4-yl)methyl]urea] |
| 180 | CC(=O)N1c2ccc(NC(=O)NCc3ccncc3)cc2CC1c1ccccc1 (stereo not drawn) [Example 34, N-(1-Acetyl-2-phenyl-2,3-dihydro-1H-indol-5-yl)-N′-[(pyridin-4-yl)methyl]urea] |
| 560 | COC(=O)Cn1c(-c2ccccc2)cc2cc(NC(=O)NCc3ccncc3)ccc21 [Example 35, Methyl [2-phenyl-5-({[(pyridin-4-yl)methyl]carbamoyl}amino)-1H-indol-1-yl]acetate] |
| 130 | COCCn1c(-c2ccccc2)cc2cc(NC(=O)NCc3ccncc3)ccc21 [Example 36, N-[1-(2-Methoxyethyl)-2-phenyl-1H-indol-5-yl]-N′-[(pyridin-4-yl)methyl]urea] |
| 160 | COCCOc1cccc(-c2cc3cc(NC(=O)NCc4ccncc4)ccc3n2C)c1 [Example 37, N-{2-[3-(2-Methoxyethoxy)phenyl]-1-methyl-1H-indol-5-yl}-N′-[(pyridin-4-yl)methyl]urea] |
| 620 | Cn1c(-c2cccc(S(C)(=O)=O)c2)cc2cc(NC(=O)NCc3ccncc3)ccc21 [Example 38, N-{2-[3-(Methanesulfonyl)phenyl]-1-methyl-1H-indol-5-yl}-N′-[(pyridin-4-yl)methyl]urea] |
| 530 | Cn1c(-c2ccccn2)cc2cc(NC(=O)NCc3ccncc3)ccc21 [Example 39, N-[1-Methyl-2-(pyridin-2-yl)-1H-indol-5-yl]-N′-[(pyridin-4-yl)methyl]urea] |
| 190 | O=C(NCc1ccncc1)Nc1ccc2c(c1)cc(-c1ccccc1)n2CC1COCCO1 (stereo not drawn) [Example 40, N-{1-[(1,4-Dioxan-2-yl)methyl]-2-phenyl-1H-indol-5-yl}-N′-[(pyridin-4-yl)methyl]urea] |
